Source: PubChem BioAssay (NCI)
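Method: 48-hour compound exposure of cells in 96-well plates, five concentrations, linear interpolation of endpoints. Abbreviation: GI50, concentration required for 50% inhibition of growth. TGI: concentration producing complete growth inhibition.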

Experiments:
Assay in all cases: growth of human tumour cells (NCI), 48 h
A498 renal = system: A498 renal
IGROV1 ovarian = system: IGROV1 ovarian
K-562 leukemia = system: K-562 leukemia
OVCAR-3 ovarian = system: OVCAR-3 ovarian
SK-MEL-5 melanoma = system: SK-MEL-5 melanoma
UACC-62 melanoma = system: UACC-62 melanoma
KM12 colon = system: KM12 colon
MOLT-4 leukemia = system: MOLT-4 leukemia
NCI/ADR-RES ovarian = system: NCI/ADR-RES ovarian
T-47D breast = system: T-47D breast

| SMILES | TGI (A498 renal) | TGI (IGROV1 ovarian) | TGI (K-562 leukemia) | TGI (OVCAR-3 ovarian) | TGI (SK-MEL-5 melanoma) | TGI (UACC-62 melanoma) | TGI (KM12 colon) | TGI (MOLT-4 leukemia) | GI50 (A498 renal) | GI50 (IGROV1 ovarian) | GI50 (K-562 leukemia) | GI50 (KM12 colon) | GI50 (MOLT-4 leukemia) | GI50 (OVCAR-3 ovarian) | GI50 (SK-MEL-5 melanoma) | GI50 (UACC-62 melanoma) | GI50 (NCI/ADR-RES ovarian) | TGI (NCI/ADR-RES ovarian) | GI50 (T-47D breast) | TGI (T-47D breast) |
| --- | --- | --- | --- | --- | --- | --- | --- | --- | --- | --- | --- | --- | --- | --- | --- | --- | --- | --- | --- | --- |
| NC(=O)NNC(=O)CCn1[nH]c(=O)c(Cl)c(Cl)c1=O | > 100 µM | > 100 µM | > 100 µM | > 100 µM | > 100 µM | > 100 µM | – | – | – | – | – | – | – | – | – | – | – | – | – | – |
| CC1(C)OC2C(CCP(=O)(O)O)OC(c3nc(C(N)=O)cs3)C2O1 (stereo unspecified) | > 100 µM | > 100 µM | > 100 µM | – | – | > 100 µM | > 100 µM | > 100 µM | – | – | – | – | – | – | – | – | – | – | – | – |
| NS(=O)(=O)OC[C@H]1C[C@@H](Nc2ccnc3cc(-c4cccc(SC(F)(F)F)c4)nn23)[C@H](O)[C@@H]1O | 0.0262 µM | 0.673 µM | 1.23 µM | 0.034 µM | 0.0278 µM | 0.195 µM | 0.368 µM | 0.588 µM | 0.013 µM | 0.111 µM | < 0.014 µM | 0.0991 µM | 0.166 µM | < 0.0166 µM | 0.0133 µM | 0.0325 µM | – | – | – | – |
| O=c1c2ccccc2sc2c(NCCCNCCO)nc3ccccc3c12 | – | 3.17 µM | – | 3.65 µM | 3.03 µM | 3.85 µM | 3.48 µM | 3.32 µM | – | 1.35 µM | – | 1.77 µM | 1.26 µM | 1.81 µM | 1.64 µM | 1.89 µM | 1.86 µM | 4.56 µM | 1.99 µM | 4.38 µM |
| N#C/C(=C\c1cc(O)cc(O)c1)C(N)=O | > 100 µM | > 100 µM | > 100 µM | > 100 µM | – | > 100 µM | > 100 µM | > 100 µM | – | – | – | – | – | – | – | – | – | – | – | – |
| O=C1C=C(Nc2ccc(Cl)cc2Cl)c2ccccc2C1=O | > 100 µM | > 100 µM | > 100 µM | > 100 µM | – | 32.8 µM | > 100 µM | > 100 µM | – | – | – | – | – | – | – | – | – | – | – | – |
| C=CSCCC(N)C(=O)O (stereo unspecified) | > 100 µM | > 100 µM | > 100 µM | > 100 µM | > 100 µM | > 100 µM | > 100 µM | > 100 µM | – | – | – | – | – | – | – | – | – | – | – | – |
| O=C(/C=C\c1ccccc1O)c1ccc(O)cc1O | > 100 µM | > 100 µM | > 100 µM | > 100 µM | > 100 µM | > 100 µM | > 100 µM | > 100 µM | – | – | – | – | – | – | – | – | – | – | – | – |
| C=C[C@@H](C)[C@]1(C(=O)OC)CCCC12OCCO2 | > 100 µM | > 100 µM | > 100 µM | > 100 µM | > 100 µM | > 100 µM | > 100 µM | > 100 µM | – | – | – | – | – | – | – | – | – | – | – | – |
| CC(C)(C)C1=CC(=C(P(=O)(O)O)P(=O)(O)O)C=C(C(C)(C)C)C1=O | > 50 µM | > 50 µM | > 50 µM | > 50 µM | > 50 µM | > 50 µM | > 50 µM | > 50 µM | – | – | – | – | – | – | – | – | – | – | – | – |
| COc1ccc(Nc2nc3cc(N)cc(N)c3nc2-c2ccccc2)cc1 | – | 35.8 µM | > 100 µM | 37.3 µM | 28.6 µM | 30.5 µM | 30.9 µM | – | – | 15.4 µM | 29.8 µM | 15.9 µM | – | 17.3 µM | 15.3 µM | 16.8 µM | 18.9 µM | 44.9 µM | 17.8 µM | 53.8 µM |
| CC(=O)Nc1ccc(/C=C/C(=O)c2sc(-c3cccnc3)nc2C)cc1 | > 100 µM | > 100 µM | > 100 µM | > 100 µM | > 100 µM | > 100 µM | > 100 µM | > 100 µM | – | – | – | – | – | – | – | – | – | – | – | – |
| CN(CCS(=O)(=O)N1C(=O)C2CCCN2C(=O)[C@@H]1Cc1ccccc1)C(=O)OCc1ccccc1 (stereo partly specified) | > 100 µM | > 100 µM | > 100 µM | > 100 µM | > 100 µM | 95.7 µM | > 100 µM | 53.5 µM | – | – | – | – | – | – | – | – | – | – | – | – |
| O=C(CCC(=O)Nc1ccc(Cl)c(Cl)c1)Cc1nc2ccccc2o1 | > 100 µM | > 100 µM | > 100 µM | > 100 µM | > 100 µM | > 100 µM | > 100 µM | > 100 µM | – | – | – | – | – | – | – | – | – | – | – | – |
| OCC1C(OCc2ccccc2)C(OCc2ccccc2)C(OCc2ccccc2)CN1Cc1ccccc1 (stereo unspecified) | – | > 100 µM | > 100 µM | > 100 µM | – | > 100 µM | > 100 µM | > 100 µM | – | – | – | – | – | – | – | – | – | > 100 µM | – | > 100 µM |
| NCCSSCc1ccccc1CSSCCN | > 100 µM | > 100 µM | 43.4 µM | > 100 µM | > 100 µM | > 100 µM | > 100 µM | > 100 µM | – | – | – | – | – | – | – | – | – | – | – | – |
